Earlier results in patent EP2408442B1, “PHARMACEUTICAL COMPOSITION PRESENTING ANTI-INFLAMMATORY PROPERTIES” (Bioxtract S.A., priority 2009, dated 2010).

Conditions: 42 or 84 mg of oral not formulated curcumin, including metabolised forms (glucuronides or sulfates)

COc1cc(C=CC(=O)CC(=O)C=Cc2ccc(O)c(OC)c2)ccc1O [curcumin, 1,7-bis(4-hydroxyl-3-methoxyphenyl)-1,6-heptadiene-3,5-dione]
oral bioavailability: not bioavailable at all
